Test [1] has as its target T1, Tyrosinase (Mus musculus, UniProt P11344).
T1 sequence (P11344 whole entry): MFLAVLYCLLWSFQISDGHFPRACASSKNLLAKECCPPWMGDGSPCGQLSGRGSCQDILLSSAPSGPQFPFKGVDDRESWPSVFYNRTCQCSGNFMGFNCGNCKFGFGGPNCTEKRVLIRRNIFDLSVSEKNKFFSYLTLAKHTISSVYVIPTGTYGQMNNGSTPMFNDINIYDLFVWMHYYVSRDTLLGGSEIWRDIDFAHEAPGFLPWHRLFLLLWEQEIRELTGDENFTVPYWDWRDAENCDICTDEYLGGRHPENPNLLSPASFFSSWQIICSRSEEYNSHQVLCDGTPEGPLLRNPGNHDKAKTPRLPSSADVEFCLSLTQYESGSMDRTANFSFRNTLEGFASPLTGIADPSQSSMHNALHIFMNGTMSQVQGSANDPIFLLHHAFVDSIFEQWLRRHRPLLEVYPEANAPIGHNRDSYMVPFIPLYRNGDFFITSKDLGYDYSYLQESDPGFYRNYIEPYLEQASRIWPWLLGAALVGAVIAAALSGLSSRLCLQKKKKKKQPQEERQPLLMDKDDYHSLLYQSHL
Description: Inhibition of tyrosinase in mouse B16-F10 cells assessed as inhibition of melanin production measured after 72 hrs

Another test concerns the target Mushroom tyrosinase (Agaricus bisporus, UniProt O42713+Q00024+C7FF04+C7FF05).
Test [2] deals with T2, Tyrosinase (Homo sapiens, UniProt P14679).
T2 sequence (P14679 whole entry): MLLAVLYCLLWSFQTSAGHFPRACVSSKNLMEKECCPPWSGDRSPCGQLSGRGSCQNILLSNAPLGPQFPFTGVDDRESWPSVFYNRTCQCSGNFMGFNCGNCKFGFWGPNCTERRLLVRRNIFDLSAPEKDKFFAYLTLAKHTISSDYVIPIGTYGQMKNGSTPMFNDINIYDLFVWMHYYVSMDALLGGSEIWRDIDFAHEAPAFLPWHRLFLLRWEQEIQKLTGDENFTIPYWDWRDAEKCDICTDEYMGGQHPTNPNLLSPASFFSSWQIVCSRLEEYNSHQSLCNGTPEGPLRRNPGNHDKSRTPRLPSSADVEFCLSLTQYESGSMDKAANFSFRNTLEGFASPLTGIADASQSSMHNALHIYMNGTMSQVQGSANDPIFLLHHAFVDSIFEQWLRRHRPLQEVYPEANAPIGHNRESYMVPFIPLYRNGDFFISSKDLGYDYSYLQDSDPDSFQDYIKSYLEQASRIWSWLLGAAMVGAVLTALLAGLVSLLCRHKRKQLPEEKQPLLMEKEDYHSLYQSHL
It counts as cell-based, MNT-1.
Description: Inhibition of tyrosinase in human MNT-1 cells assessed as inhibition of melanin production measured after 96 hrs

The target of test [3] is T2, Tyrosinase. It counts as subcellular, MNT-1, Lysates.
Test [4] has as its target T2, Tyrosinase.
Description: Competitive inhibition of human recombinant tyrosinase expressed in Sf9 cells using L-DOPA as substrate by Michelis-Menten based analysis
The target of test [5] is T3, Tyrosinase (Streptomyces antibioticus, UniProt P07524).
T3 sequence (P07524 whole entry): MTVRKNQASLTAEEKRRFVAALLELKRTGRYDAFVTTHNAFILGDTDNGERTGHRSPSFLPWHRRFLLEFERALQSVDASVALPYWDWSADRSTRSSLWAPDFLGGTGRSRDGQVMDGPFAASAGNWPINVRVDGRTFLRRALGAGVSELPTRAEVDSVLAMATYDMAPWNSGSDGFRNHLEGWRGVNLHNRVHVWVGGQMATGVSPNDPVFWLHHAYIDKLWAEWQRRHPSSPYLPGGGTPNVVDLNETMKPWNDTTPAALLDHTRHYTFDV
Description: Competitive inhibition of Streptomyces antibioticus tyrosinase using L-DOPA as substrate by Michelis-Menten based analysis

Each structure is given as a SMILES string. Bounds are passed on as bounds.

Description for Mushroom tyrosinase: Competitive inhibition of Agaricus bisporus tyrosinase using L-DOPA as substrate by Michelis-Menten based analysis

The IC50 is the concentration needed to halve the response being measured. A higher IC50 goes with a need for much substance. Usually Ki stands for the equilibrium dissociation constant of an inhibitor or competing ligand from its target. A low value points to tighter binding. With `Cl.NC(Cc1ccc(=O)n(O)c1)C(=O)O` (racemic), the IC50 against Tyrosinase [1] is 10 µM; on Tyrosinase [2] it was above 400 µM; on Tyrosinase [3] it was 90 µM. The Ki was 1.2 µM at Mushroom tyrosinase, 6 µM at Tyrosinase [4] and 42 µM on Tyrosinase [5].

For `Cl.N[C@H](Cc1ccc(=O)n(O)c1)C(=O)O`, the Ki on Mushroom tyrosinase is 12.8 µM; at Tyrosinase [4], 76 µM; on Tyrosinase [5], 16 µM. Also, the results for the IC50 against Tyrosinase [2] and on Tyrosinase [3] were above 400 µM and 277 µM, respectively.

For `Cl.N[C@@H](Cc1ccc(=O)n(O)c1)C(=O)O`, the Ki on Mushroom tyrosinase worked out at 12.5 µM; on Tyrosinase [4], 8 µM; on Tyrosinase [5] it was 39 µM. Further, the IC50 is above 400 µM against Tyrosinase [2] and 73.6 µM at Tyrosinase [3].

In turn, `O=c1ccc(CO)cn1O` had an IC50 against Tyrosinase [1] of 61.2 µM. The Ki at Mushroom tyrosinase came out at 1.2 µM; on Tyrosinase [4], 7.5 µM; on Tyrosinase [5], 4.1 µM.

Values taken from ChEMBL document CHEMBL5325409, “Exploiting HOPNO-dicopper center interaction to development of inhibitors for human tyrosinase” (Eur J Med Chem, 2023).
